Assays:
[1] = test system: human HDAC enzymes from nuclear extract of HeLa cells; assay: HDAC inhibitor screening assay (HeLa nuclear extract); type: biochemical; settings: 6-PN 5 μM, 8-PN 10 μM
Experimental: (§1) FIG. 2: In silico docking analysis with 6-PN and 8-PN illustrates the inhibitory potential on human-derived HDACs of class I and II. (A) Results of the in silico docking analysis of 6-PN and 8-PN with crystal structures of HDAC2 (class I) and HDAC4 (class II). […] Both molecules are predicted to interact with the zinc ion as well as other residues of the catalytic center. Docking analyses of 6-PN and 8-PN in the individual HDAC binding pockets were performed using GOLD (version 4.1.2) and MOE (version 2009.10). (B) Overall HDAC inhibition in cellular extracts of the human cell line HeLa by increasing concentrations of 6-PN and 8-PN (5 μM, 10 μM, 20 μM, 50 μM and 100 μM). As reference inhibitor 100 μM SAHA was used. Every concentration was tested three times in triplicates. Shown are the mean±SD. (C) Specific fluometric profiling assay using recombinant human HDACs of classes I, II and IV. Specific inhibition values were generated for the treatment with 100 μM 6-PN and 8-PN. TSA was used as reference inhibitor (HDAC1, 2, 3, 6, 10, 11: 10 nM; HDAC4, 8, 9: 1 μM; HDAC5, 7:10 μM). The inhibition vales for every HDAC were yielded by one experiment performed in duplicates Shown are the mean±S.A. […]

[2] = test system: human HDAC enzymes HDAC1-HDAC11; assay: HDAC inhibition profiling (Fluor de Lys); type: biochemical; settings: 100 μM, HDAC1-HDAC11, 1% DMSO
Experimental: as §1, with “8-PN.” for “8-PN. TSA was used as reference inhibitor (HDAC1, 2, 3, 6, 10, 11: 10 nM; HDAC4, 8, 9: 1 μM; HDAC5, 7:10 μM). The inhibition vales for every HDAC were yielded by one experiment performed in duplicates Shown are the mean±S.A.”
The human HDAC profiling assay was performed on the basis of the Fluor de Lys™ technology by Scottish Biomedical, Glasgow, United Kingdom. The percentage inhibition values of 100 μM of 6-PN and 100 μM of 8-PN against the human HDAC enzymes HDAC1, HDAC2, HDAC3, HDAC4, HDAC5, HDAC6, HDAC7, HDAC8, HDAC9, HDAC10, and HDAC11 were determined. […]

[3] = test system: SK-MEL-28 melanoma cells; assay: Apoptosis antibody array (35 proteins); type: cell-based, human; settings: SK-MEL-28, 100 μM, 4 hours
Experimental: Apoptosis assay (35 proteins) performed on lysates of SK-MEL-28 melanoma cells 4 hours after treatment with 100 μM of 6-PN or 8-PN. Protein expression levels were estimated performing a densitometric analysis. Neither 6-PN nor 8-PN yielded a significant change of expression of the analyzed proteins involved in apoptosis.
Testing of apoptosis induction was performed with the human Proteom-Profiler-Apoptosis-Antibody-Array-Kit (R & D Systems, Wiesbaden, Germany) as described by the manufacturer after treatment of SK-MEL-28 melanoma cells with 100 μM 6-PN or 100 μM 8-PN for 4 hours.
(§2) To further analyze the possibility of apoptosis induction, an extensive apoptosis assay was performed on SK-MEL-28 melanoma cells 4 hours after treatment with 100 μM 6-PN or 8-PN (FIG. 9). […] This was verified by FACS cell cycle analyses to screen for a possible increase of the sub-G1 fraction of cells (apoptotic cells) or for the induction of a G2 arrest (inhibition of proliferation). […] To further differentiate between the induction of apoptosis and/or necrosis an PI/Annexin V staining of SK-MEL-28 and BLM cells was performed 4 hours and 24 hours after the treatment with 6-PN or 8-PN; 10 μM staurosporin (6 hours treatment) was used as positive control for the induction of apoptosis; DMSO treatment was used as vehicle control. The cells were then analyzed by FACS.

[4] = test system: SK-MEL-28 melanoma cells; assay: FACS cell cycle analysis (PI), SK-MEL-28; type: cell-based, human; settings: SK-MEL-28, 100 μM, 48 hours
Experimental: (A) Cell cycle FACS analyses of PI stained BLM and SK-MEL-28 melanoma cells. 100 μM of 8-PN-induced a G2 arrest in both cells. (B) FACS analyses of BLM and SK-MEL-28 melanoma cells treated with 100 μM 6-PN or 8-PN and stained for annexin V/PI; staurosporin was used as control for apoptosis induction and DMSO as vehicle control. […] (C) BLM and SK-MEL-28 melanoma cells were treated with 100 μM of PNs; TSA, SAHA and EMSO were used as controls.
as §2

[5] = test system: prostate cancer cell line DU145; settings: DU145 in vitro; cited from earlier work

With `CC(C)=CCc1c(O)cc(O)c2c1OC(c1ccc(O)cc1)CC2=O` (stereo not drawn) [8-PN, 5,7-Dihydroxy-2-(4-hydroxy-phenyl)-8-(3-methyl-but-2-enyl)-chroman-4-one] the “HDAC inhibitory effect at low concentration” value [1] was “showed inhibitory effects”, the “inhibition of HDAC activity on all tested human HDACs” value [2] was “strongly inhibited” and the “apoptosis induction (expression of 35 apoptosis proteins, densitometric)” value [3] was “not apoptosis related”. For the same molecule, the “sub-G1 fraction (apoptotic cells)” value [4] was “remained unaffected”, the “cells in the G2 phase” value ([4]; DMSO control 20.1%) was 49.8% and the antiproliferative effects [5] was “antiproliferative effects”.

From patent US20160067211A1, “PHARMACEUTICAL COMPOSITION” (Eberhard Karls Universitaet Tuebingen Medizinische Fakultaet, priority 2013, published 2016)
